How the values were obtained:
Type in all cases: biochemical
[1] = target: T1, JAK2 (Homo sapiens, UniProt O60674); assay: JAK2 inhibition (Table 4); conditions: read-out: JAK2 Ki
T1 construct: made in house; host or cells: SF9 insect cells (baculovirus)

[2] = target: T2, JAK1 (Homo sapiens, UniProt P23458); assay: JAK1 inhibition (Table 4); conditions: read-out: JAK1 Ki
T2 construct: made in house; host or cells: SF9 insect cells (baculovirus)

[3] = target: T3, JAK3 (Homo sapiens, UniProt P52333); assay: JAK3 inhibition (Table 4); conditions: read-out: JAK3 Ki
T3 construct: made in house; host or cells: SF9 insect cells (baculovirus)
T3 sequence (P52333 783-1124): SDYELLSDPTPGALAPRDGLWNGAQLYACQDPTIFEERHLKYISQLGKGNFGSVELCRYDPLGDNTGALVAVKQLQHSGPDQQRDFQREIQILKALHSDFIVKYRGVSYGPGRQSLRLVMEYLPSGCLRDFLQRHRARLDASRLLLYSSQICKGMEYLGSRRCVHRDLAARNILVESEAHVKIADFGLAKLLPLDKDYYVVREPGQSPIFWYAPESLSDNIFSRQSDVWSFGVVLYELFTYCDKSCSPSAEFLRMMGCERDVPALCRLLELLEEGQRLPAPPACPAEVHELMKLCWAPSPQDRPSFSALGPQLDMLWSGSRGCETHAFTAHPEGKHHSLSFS

[4] = target: T4, TYK2 (Homo sapiens, UniProt P29597); assay: TYK2 inhibition (Table 4)
T4 construct: made in house; host or cells: SF9 insect cells (baculovirus)
T4 sequence (P29597 873-1187): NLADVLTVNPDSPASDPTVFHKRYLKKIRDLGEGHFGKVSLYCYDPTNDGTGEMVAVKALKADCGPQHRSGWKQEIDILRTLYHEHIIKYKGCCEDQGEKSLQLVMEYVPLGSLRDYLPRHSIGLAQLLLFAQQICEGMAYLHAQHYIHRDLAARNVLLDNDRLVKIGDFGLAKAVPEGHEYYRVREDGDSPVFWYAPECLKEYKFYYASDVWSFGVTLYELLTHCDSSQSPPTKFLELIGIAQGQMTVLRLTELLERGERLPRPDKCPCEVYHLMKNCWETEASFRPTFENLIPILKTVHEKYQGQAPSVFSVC

T2 sequence (P23458 852-1154): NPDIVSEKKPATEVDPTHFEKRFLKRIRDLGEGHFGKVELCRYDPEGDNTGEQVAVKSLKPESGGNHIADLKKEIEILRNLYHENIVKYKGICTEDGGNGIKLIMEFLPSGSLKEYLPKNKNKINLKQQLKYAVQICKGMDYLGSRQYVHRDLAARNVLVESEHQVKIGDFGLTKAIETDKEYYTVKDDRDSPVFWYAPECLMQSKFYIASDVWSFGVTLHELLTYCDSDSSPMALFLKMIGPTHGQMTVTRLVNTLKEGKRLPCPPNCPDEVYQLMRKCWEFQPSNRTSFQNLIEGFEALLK
T1 sequence (O60674 812-1132): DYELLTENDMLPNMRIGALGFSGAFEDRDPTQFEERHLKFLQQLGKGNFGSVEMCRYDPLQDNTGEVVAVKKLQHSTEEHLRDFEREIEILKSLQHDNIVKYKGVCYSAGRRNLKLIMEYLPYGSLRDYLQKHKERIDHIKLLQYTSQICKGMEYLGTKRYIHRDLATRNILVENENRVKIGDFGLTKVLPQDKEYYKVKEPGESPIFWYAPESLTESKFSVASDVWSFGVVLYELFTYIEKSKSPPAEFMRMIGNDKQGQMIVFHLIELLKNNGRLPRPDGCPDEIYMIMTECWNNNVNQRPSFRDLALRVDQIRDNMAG

Row | SMILES | Ki [1] [nM] | Ki [2] [nM] | Ki [3] [nM] | Ki [4] [nM]
1 | CS(=O)(=O)N1[C@@H]2CC[C@H]1C[C@H](n1cnc3cnc4[nH]ccc4c31)C2 [Example 97, 1-((1S,3S,5R)-8-Methanesulfonyl-8-aza-bicyclo[3.2.1]oct-3-yl)-1,6-dihydro-1,3,5,6-tetraaza-as-indacene] | 2.32 | 3.51 | 29.6 | 19.8
2 | CC(O)c1nc2cnc3[nH]ccc3c2n1C1CC2CCC1O2 (single isomer, unassigned) [Example 937, Endo-1-[1-(7-Oxa-bicyclo[2.2.1]hept-2-yl)-1,6-dihydro-1,3,5,6-tetraaza-as-indacen-2-yl]-ethanol] | 174 | 80.5 | 73.3 | 144
3 | c1cc2c(ncc3nc(C4CC4)n(C4CCNCC4)c32)[nH]1 [Example 298, 2-Cyclopropyl-1-piperidin-4-yl-1,6-dihydro-1,3,5,6-tetraaza-as-indacene] | 367 | 27.8 | 231 | 1290
4 | CCn1ncc(CN2CCC(n3c([C@@H](C)O)nc4cnc5[nH]ccc5c43)CC2)c1C [Example 900, (R)-1-{1-[1-(1-Ethyl-5-methyl-1H-pyrazol-4-ylmethyl)-piperidin-4-yl]-1,6-dihydro-1,3,5,6-tetraaza-as-indacen-2-yl}-ethanol] | 494 | 18 | 130 | 2010
5 | C[C@H](O)c1nc2cnc3[nH]ccc3c2n1[C@@H]1CCCN(C(=O)CC(F)(F)F)C1 [Example 782, 3,3,3-Trifluoro-1-{(R)-3-[2-((S)-1-hydroxy-ethyl)-6H-1,3,5,6-tetraaza-as-indacen-1-yl]-piperidin-1-yl}-propan-1-one] | 1470 | 286 | 2970 | 3040
6 | CN(C)CCC(=O)N1CCC(n2cnc3cnc4[nH]ccc4c32)CC1 [Example 439, 3-Dimethylamino-1-[4-(6H-1,3,5,6-tetraaza-as-indacen-1-yl)-piperidin-1-yl]-propan-1-one] | 437 | 84.2 | 1110 | 1980
7 | C[C@@H](O)c1nc2cnc3[nH]ccc3c2n1[C@@H]1CCCN(C(=O)CC2CC2)C1 [Example 791, 2-Cyclopropyl-1-{(R)-3-[2-((R)-1-hydroxy-ethyl)-6H-1,3,5,6-tetraaza-as-indacen-1-yl]-piperidin-1-yl}-ethanone] | 1080 | 82.4 | 822 | 814

Further compounds by falling Ki [1], results first:

Row | Ki [1] [nM] | Ki [2] [nM] | Ki [3] [nM] | Ki [4] [nM] | SMILES
8 | 48.6 | 2.91 | 59.8 | 65.2 | N#CCN1CCC(N[C@H]2CC[C@H](n3cnc4cnc5[nH]ccc5c43)CC2)CC1 [Example 568, trans {4-[4-(6H-1,3,5,6-Tetraaza-as-indacen-1-yl)-cyclohexylamino]-piperidin-1-yl}-acetonitrile]
9 | 44.7 | 45.6 | 29.9 | 382 | CC(CC#N)N1CCC(n2c(C3CCOCC3)nc3cnc4[nH]ccc4c32)CC1 (racemic) [Example 393, 3-{4-[2-(Tetrahydro-pyran-4-yl)-6H-1,3,5,6-tetraaza-as-indacen-1-yl]-piperidin-1-yl}-butyronitrile]
10 | 8.44 | 4.53 | 7.19 | 107 | CN(CC(F)(F)F)C(=O)NC1CCC(n2cnc3cnc4[nH]ccc4c32)C1 (racemic) [Example 737, 1-Methyl-3-[3-(6H-1,3,5,6-tetraaza-as-indacen-1-yl)-cyclopentyl]-1-(2,2,2-trifluoro-ethyl)-urea]
11 | 4.4 | 2.07 | 19.6 | 47.1 | CC(C)(C)OC(=O)NC1CCCC(n2cnc3cnc4[nH]ccc4c32)C1 (single isomer, unassigned) [Example 474, [3-(6H-1,3,5,6-Tetraaza-as-indacen-1-yl)-cyclohexyl]-carbamic acid tert-butyl ester]
